Experimental data published in patent US10913757B2, “Hydroxycinnamic derivatives, methods and uses thereof” (UNIVERSIDADE DO PORTO, priority 2016, dated 2021).
Entries after “also recorded” stand apart in the source; their conditions may differ.

Assays:
Format in all cases: cell-based, human
HepG2 cells [1] = experiment: Cytotoxicity screening in HepG2 cells, SRB assay; details: HepG2, 48 hour
Protocol: In an embodiment, and as an example, the cytotoxicity of two AntiOxCINs (AntiOxCIN4 and AntiOxCIN6) was assessed using monolayer cultures of human hepatocytes from hepatocellular carcinoma (HepG2) and SRB method (FIG. 8A). […] Remarkably, at concentrations higher than 2.5 μM AntiOxCIN6 inhibited cell proliferation, while at concentrations higher than 100 μM AntiOxCIN4 stimulated cell proliferation.
(§1) In an embodiment, the cytotoxicity profile of AntiOxCIN4 and AntiOxCIN6 was evaluated in human hepatocellular carcinoma HepG2 cells. Human hepatocellular carcinoma HepG2 cells were cultured in high-glucose medium composed by Dulbecco's modified Eagle's medium (DMEM; D5648) supplemented with sodium pyruvate (0.11 g/L), sodium bicarbonate (1.8 g/L) and 10% fetal bovine serum (FBS) and 1% of antibiotic penicillin-streptomycin 100× solution. Cells were maintained at 37° C. in a humidified incubator with 5% CO2. HepG2 cells were seeded at density of 4×10^4 cells/mL and grown for 24 hours before treatment.
In an embodiment the cytotoxicity screening was performed as follows: cells were placed on 48-well plate (2×10^4 cells/500 μL) and then were incubated during 48 hour with AntiOxCIN4 and AntiOxCIN6 concentrations ranging 25 μM to 500 μM or 0.5 μM to 25 μM, respectively. After incubation, sulforhodamine B (SRB) assay was used for cell density determination based on the measurement of cellular protein content. Briefly, after incubation, the medium was removed and wells rinsed with PBS (1×). Cells were fixed by adding 1% acetic acid in 100% methanol for at least 2 hours at −20° C. Later, the fixation solution was discarded and the plates were dried in an oven at 37° C. […] Finally, 200 μl of each supernatant was transferred in 96-well plates and optical density was measured at 540 nm. Data are means±SEM of four independent experiments and the results are expressed as percentage of control (control=100%), which represents the cell density without any treatment in the respective time point.

HepG2 cells [2] = experiment: Cellular antioxidant screening in HepG2 cells (FeSO4 or H2O2), SRB assay; details: pre-incubated 1 hour, AntiOxCIN4 100 μM, AntiOxCIN6 2.5 μM; for prevention of iron-induced HepG2 cytotoxicity (cell proliferation): 250 μM FeSO4 48 h; for prevention of hydrogen peroxide-induced HepG2 cytotoxicity (cell proliferation): 250 μM H2O2 48 h
Protocol: In an embodiment, as an example, the antioxidant cellular outline of AntiOxCIN4 and AntiOxCIN6 was assessed using monolayer cultures of human hepatocytes from hepatocellular carcinoma (HepG2) and two different oxidative stressors (250 μM FeSO4 or 250 μM H2O2) (FIG. 8B). […] The higher efficacy of AntiOxCIN4 is in agreement with the data attained from TAC assays (Table 1) and RLM assays (FIG. 4).
as §1
In an embodiment, the cellular antioxidant screening was performed as follows: cells were placed on 48-well plate (2×10^4 cells/500 μL) and pre-incubated with non-toxic concentrations of AntiOxCIN4 (100 μM) or AntiOxCIN6 (2.5 μM) for 1 hour. After the incubation time, cells were exposed to oxidative stress conditions by the addition of 250 μM FeSO4 or 250 μM H2O2 for 48 hours. At the end of incubation time, SRB assay was used for cell density determination as previously described. Data are means±SEM of four independent experiments. The results are expressed as percentage of control (control=100%), which represents the cell density without any treatment in the respective time point.

HepG2 cells [3] = experiment: Morphological alterations in HepG2 cells, vital epifluorescence microscopy (TMRM, Hoechst 33342); details: HepG2, 48 h; AntiOxCIN4 100 μM, AntiOxCIN6 2.5 μM, FIG. 8C; methanesulfonate
Protocol: In an embodiment, as an example, the morphological changes in mitochondrial network and nuclei chromatin condensation of AntiOxCIN4 and AntiOxCIN6 have been determined. HepG2 cells were treated with AntiOxCINs for 48 h and then incubated with the mitochondrialΔΨ-dependent fluorescent probes TMRM and DNA dye Hoechst 33342.
In an embodiment, the detection of morphological alterations, including chromatin condensation and mitochondrial polarization and distribution by vital epifluorescence microscopy was performed as follows: cells were placed in 6-well plates with a glass coverslip per well (8×10^4 cells/2 mL) and then treated with non-toxic concentrations of AntiOxCIN4 or AntiOxCIN6 for 48 hours. Thirty minutes prior the end of the incubation time, the mitochondrial network was stained with TMRM (100 nM) while nuclei were stained with Hoechst 33342 (1 μg/mL), to detect apoptotic chromatin condensation, in HBSS (NaCl 137 mM, KCl 5.4 mM, NaHCO3 4.2 mM, Na2HPO4 0.3 mM, KH2PO4 0.4 mM, CaCl2 1.3 mM, MgCl2 0.5 mM, MgSO4 0.6 mM, and D-glucose 5.6 mM, pH 7.4) at 37° C. under dark conditions. Glass coverslips were removed from the wells and placed on glass slides with a drop of mounting medium. The cell images were acquired using a Zeiss LSM 510Meta microscope and analysed with ImageJ software 1.49v. […]

| SMILES | concentration above which cell proliferation was stimulated (HepG2 cells [1]; FIG. 8A) | prevention of iron-induced HepG2 cytotoxicity (cell proliferation) (HepG2 cells [2]) | prevention of hydrogen peroxide-induced HepG2 cytotoxicity (cell proliferation) (HepG2 cells [2]) | nuclear morphology and mitochondrial polarization (HepG2 cells [3]) | toxicity toward HepG2 cells (comparison) (HepG2 cells [1]) | concentration above which cell proliferation was inhibited (HepG2 cells [1]; FIG. 8A) |
| --- | --- | --- | --- | --- | --- | --- |
| CS(=O)(=O)[O-].O=C(/C=C/c1cc(O)c(O)c(O)c1)NCCCCCC[P+](c1ccccc1)(c1ccccc1)c1ccccc1 [AntiOxCIN4, (E)-(6-(3-(3,4,5-trihydroxyphenyl)prop-2-enamido)hexyl)triphenylphosphonium methanesulfonate] | higher than 100 μM | significantly prevented | significantly prevented | did not induce nuclear morphological changes neither mitochondrial depolarization; also recorded: did not disturb the normal nuclear morphology and mitochondrial polarization |  |  |
| CS(=O)(=O)[O-].O=C(/C=C/c1ccc(O)c(O)c1)NCCCCCCCCCC[P+](c1ccccc1)(c1ccccc1)c1ccccc1 [AntiOxCIN6, (E)-(10-(3-(3,4-dihydroxyphenyl)acrylamido)decyl)triphenylphosphonium methanesulfonate] |  | significantly prevented | significantly prevented | did not induce nuclear morphological changes neither mitochondrial depolarization; also recorded: did not disturb the normal nuclear morphology and mitochondrial polarization | higher toxicity than AntiOxCIN4 | higher than 2.5 μM |
